Target: Mast/stem cell growth factor receptor Kit (Homo sapiens, UniProt P10721, V559D)
Sequence (P10721 26-976 V559D limits assumed): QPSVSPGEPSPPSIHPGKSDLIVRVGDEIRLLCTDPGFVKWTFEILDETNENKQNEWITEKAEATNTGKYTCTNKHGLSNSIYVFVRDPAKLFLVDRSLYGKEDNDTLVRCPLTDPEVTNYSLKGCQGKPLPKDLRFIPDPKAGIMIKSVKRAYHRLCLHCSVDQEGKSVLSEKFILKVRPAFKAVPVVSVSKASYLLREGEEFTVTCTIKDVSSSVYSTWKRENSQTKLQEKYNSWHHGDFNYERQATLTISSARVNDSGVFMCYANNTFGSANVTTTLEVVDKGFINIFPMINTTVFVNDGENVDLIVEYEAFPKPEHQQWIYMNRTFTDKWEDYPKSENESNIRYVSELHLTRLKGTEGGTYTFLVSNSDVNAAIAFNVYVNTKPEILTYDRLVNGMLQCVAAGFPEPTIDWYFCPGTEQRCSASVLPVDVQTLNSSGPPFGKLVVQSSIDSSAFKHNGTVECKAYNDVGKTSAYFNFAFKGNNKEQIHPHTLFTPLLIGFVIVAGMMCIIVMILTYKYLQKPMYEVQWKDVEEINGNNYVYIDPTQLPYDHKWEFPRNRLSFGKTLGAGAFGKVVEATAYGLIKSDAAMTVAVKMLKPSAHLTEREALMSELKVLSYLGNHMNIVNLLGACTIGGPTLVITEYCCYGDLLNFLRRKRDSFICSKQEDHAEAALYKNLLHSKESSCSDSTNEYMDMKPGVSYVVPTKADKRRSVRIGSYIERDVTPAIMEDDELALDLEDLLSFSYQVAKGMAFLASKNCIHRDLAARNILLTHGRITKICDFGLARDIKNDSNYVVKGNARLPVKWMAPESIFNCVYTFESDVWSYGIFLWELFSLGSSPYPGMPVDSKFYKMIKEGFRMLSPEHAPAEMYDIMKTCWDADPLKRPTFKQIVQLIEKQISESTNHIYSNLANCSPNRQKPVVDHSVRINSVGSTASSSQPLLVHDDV

SMILES	Kd [µM]
CCOc1cc2ncc(C#N)c(Nc3ccc(F)c(Cl)c3)c2cc1NC(=O)/C=C/CN(C)C [PELITINIB]	> 10
Oc1ccc(-c2nc(-c3ccncc3)c(-c3ccc(F)cc3)[nH]2)cc1 [SB-202190]	> 10
COCC(=O)NC/C=C/c1ccc2ncnc(Nc3ccc(Oc4ccc(C)nc4)c(C)c3)c2c1 [CP-724714]	> 10
NC(=O)c1ccc(-c2nc(-c3ccc4c(c3)OCO4)c(-c3ccccn3)[nH]2)cc1 [SB-431542]	> 10

Target: T1, Serine/threonine-protein kinase LATS1 (Homo sapiens, UniProt O95835)
T1 sequence (O95835 whole entry): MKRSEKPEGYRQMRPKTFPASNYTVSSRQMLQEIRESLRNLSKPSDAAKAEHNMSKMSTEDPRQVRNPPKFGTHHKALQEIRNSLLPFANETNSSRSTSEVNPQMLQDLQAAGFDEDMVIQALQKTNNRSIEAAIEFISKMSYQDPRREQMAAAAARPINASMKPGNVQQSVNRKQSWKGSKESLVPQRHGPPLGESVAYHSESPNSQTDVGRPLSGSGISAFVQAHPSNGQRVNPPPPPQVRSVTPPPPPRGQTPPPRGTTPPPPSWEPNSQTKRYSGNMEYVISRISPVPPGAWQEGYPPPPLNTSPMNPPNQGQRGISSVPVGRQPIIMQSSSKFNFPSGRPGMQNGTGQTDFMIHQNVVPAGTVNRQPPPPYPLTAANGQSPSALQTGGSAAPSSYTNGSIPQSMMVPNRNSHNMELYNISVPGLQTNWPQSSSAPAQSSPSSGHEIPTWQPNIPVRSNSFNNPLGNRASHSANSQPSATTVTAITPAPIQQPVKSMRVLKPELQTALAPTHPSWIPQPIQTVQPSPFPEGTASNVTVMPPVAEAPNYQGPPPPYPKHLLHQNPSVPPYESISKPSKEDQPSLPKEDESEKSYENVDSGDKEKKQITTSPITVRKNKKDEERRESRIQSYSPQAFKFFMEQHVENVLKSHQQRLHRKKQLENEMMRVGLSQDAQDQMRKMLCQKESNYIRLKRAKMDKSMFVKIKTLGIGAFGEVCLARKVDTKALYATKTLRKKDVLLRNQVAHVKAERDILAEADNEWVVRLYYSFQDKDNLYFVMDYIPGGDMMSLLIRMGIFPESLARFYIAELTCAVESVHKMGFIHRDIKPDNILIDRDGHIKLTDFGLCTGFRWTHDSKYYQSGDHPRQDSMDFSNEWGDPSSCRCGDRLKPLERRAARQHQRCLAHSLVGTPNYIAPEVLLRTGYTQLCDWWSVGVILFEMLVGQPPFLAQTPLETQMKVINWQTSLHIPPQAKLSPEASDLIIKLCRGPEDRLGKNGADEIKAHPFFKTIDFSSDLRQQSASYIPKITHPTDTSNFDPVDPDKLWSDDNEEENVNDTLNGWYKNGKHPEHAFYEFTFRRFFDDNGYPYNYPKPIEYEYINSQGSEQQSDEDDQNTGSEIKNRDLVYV

SMILES	Kd [µM]
CCOc1cc2ncc(C#N)c(Nc3ccc(F)c(Cl)c3)c2cc1NC(=O)/C=C/CN(C)C [PELITINIB]	> 10
Nc1nc(Nc2ccc(S(N)(=O)=O)cc2)nn1C(=O)c1c(F)cccc1F [JNJ-7706621]	> 10
Oc1ccc(-c2nc(-c3ccncc3)c(-c3ccc(F)cc3)[nH]2)cc1 [SB-202190]	> 10
COCC(=O)NC/C=C/c1ccc2ncnc(Nc3ccc(Oc4ccc(C)nc4)c(C)c3)c2c1 [CP-724714]	> 10
NC(=O)c1ccc(-c2nc(-c3ccc4c(c3)OCO4)c(-c3ccccn3)[nH]2)cc1 [SB-431542]	> 10

Target: Proto-oncogene tyrosine-protein kinase receptor Ret (Homo sapiens, UniProt P07949)

SMILES	Kd [µM]
CCOc1cc2ncc(C#N)c(Nc3ccc(F)c(Cl)c3)c2cc1NC(=O)/C=C/CN(C)C [PELITINIB]	> 10
Oc1ccc(-c2nc(-c3ccncc3)c(-c3ccc(F)cc3)[nH]2)cc1 [SB-202190]	> 10
COCC(=O)NC/C=C/c1ccc2ncnc(Nc3ccc(Oc4ccc(C)nc4)c(C)c3)c2c1 [CP-724714]	> 10
NC(=O)c1ccc(-c2nc(-c3ccc4c(c3)OCO4)c(-c3ccccn3)[nH]2)cc1 [SB-431542]	> 10

Target: Tyrosine-protein kinase ABL1 (Homo sapiens, UniProt P00519, Y253F)

SMILES	Kd [µM]
Oc1ccc(-c2nc(-c3ccncc3)c(-c3ccc(F)cc3)[nH]2)cc1 [SB-202190]	> 10
COCC(=O)NC/C=C/c1ccc2ncnc(Nc3ccc(Oc4ccc(C)nc4)c(C)c3)c2c1 [CP-724714]	> 10
NC(=O)c1ccc(-c2nc(-c3ccc4c(c3)OCO4)c(-c3ccccn3)[nH]2)cc1 [SB-431542]	> 10

Target: Maternal embryonic leucine zipper kinase (Homo sapiens, UniProt Q14680)
Sequence (Q14680 whole entry): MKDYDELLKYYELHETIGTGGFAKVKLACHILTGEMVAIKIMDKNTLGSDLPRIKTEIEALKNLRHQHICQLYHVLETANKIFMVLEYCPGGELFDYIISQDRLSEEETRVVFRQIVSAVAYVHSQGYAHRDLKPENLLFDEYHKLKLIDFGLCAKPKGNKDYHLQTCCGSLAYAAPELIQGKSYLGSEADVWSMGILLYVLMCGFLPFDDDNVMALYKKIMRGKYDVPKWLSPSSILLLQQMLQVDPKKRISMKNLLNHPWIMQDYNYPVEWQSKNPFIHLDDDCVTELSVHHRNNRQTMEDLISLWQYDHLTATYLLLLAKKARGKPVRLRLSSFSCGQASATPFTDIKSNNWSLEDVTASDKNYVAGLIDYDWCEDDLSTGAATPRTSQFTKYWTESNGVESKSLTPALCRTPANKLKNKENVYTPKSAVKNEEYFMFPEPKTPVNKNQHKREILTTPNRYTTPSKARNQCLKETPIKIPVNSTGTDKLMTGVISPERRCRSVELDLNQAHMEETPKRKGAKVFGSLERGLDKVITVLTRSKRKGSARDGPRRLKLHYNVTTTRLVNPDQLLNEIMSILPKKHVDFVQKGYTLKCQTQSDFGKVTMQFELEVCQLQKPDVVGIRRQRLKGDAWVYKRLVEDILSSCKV

SMILES	Kd [µM]
CCOc1cc2ncc(C#N)c(Nc3ccc(F)c(Cl)c3)c2cc1NC(=O)/C=C/CN(C)C [PELITINIB]	> 10
Nc1nc(Nc2ccc(S(N)(=O)=O)cc2)nn1C(=O)c1c(F)cccc1F [JNJ-7706621]	> 10
Oc1ccc(-c2nc(-c3ccncc3)c(-c3ccc(F)cc3)[nH]2)cc1 [SB-202190]	> 10
COCC(=O)NC/C=C/c1ccc2ncnc(Nc3ccc(Oc4ccc(C)nc4)c(C)c3)c2c1 [CP-724714]	> 10
NC(=O)c1ccc(-c2nc(-c3ccc4c(c3)OCO4)c(-c3ccccn3)[nH]2)cc1 [SB-431542]	> 10

Target: Tyrosine-protein kinase Srms (Homo sapiens, UniProt Q9H3Y6)
Sequence (Q9H3Y6 whole entry): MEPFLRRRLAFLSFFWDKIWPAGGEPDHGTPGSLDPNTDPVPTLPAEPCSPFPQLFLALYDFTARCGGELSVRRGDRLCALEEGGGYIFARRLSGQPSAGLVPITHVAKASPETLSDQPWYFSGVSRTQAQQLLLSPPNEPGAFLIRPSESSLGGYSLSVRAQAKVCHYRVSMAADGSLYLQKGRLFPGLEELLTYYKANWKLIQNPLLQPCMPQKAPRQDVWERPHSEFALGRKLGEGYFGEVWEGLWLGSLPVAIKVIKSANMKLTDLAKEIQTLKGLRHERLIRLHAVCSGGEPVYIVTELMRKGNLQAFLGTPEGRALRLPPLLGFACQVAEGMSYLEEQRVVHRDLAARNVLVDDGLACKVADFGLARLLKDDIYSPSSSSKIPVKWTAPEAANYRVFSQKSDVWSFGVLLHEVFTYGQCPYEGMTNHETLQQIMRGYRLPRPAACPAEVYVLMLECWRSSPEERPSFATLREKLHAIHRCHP

SMILES	Kd [µM]
CCOc1cc2ncc(C#N)c(Nc3ccc(F)c(Cl)c3)c2cc1NC(=O)/C=C/CN(C)C [PELITINIB]	> 10
Nc1nc(Nc2ccc(S(N)(=O)=O)cc2)nn1C(=O)c1c(F)cccc1F [JNJ-7706621]	> 10
Oc1ccc(-c2nc(-c3ccncc3)c(-c3ccc(F)cc3)[nH]2)cc1 [SB-202190]	> 10
COCC(=O)NC/C=C/c1ccc2ncnc(Nc3ccc(Oc4ccc(C)nc4)c(C)c3)c2c1 [CP-724714]	> 10
NC(=O)c1ccc(-c2nc(-c3ccc4c(c3)OCO4)c(-c3ccccn3)[nH]2)cc1 [SB-431542]	> 10

Target: Casein kinase II subunit alpha (Homo sapiens, UniProt P68400)
Sequence (P68400 whole entry): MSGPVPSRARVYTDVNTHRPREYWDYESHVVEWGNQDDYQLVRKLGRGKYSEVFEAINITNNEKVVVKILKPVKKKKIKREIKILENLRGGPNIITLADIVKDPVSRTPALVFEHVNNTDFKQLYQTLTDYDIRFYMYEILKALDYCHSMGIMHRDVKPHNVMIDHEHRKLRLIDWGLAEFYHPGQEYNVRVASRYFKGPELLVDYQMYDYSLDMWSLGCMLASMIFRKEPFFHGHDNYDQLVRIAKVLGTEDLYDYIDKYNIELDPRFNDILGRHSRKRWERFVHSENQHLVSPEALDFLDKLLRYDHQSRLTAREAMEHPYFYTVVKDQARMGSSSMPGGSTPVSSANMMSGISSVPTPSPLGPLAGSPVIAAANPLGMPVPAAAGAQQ

SMILES	Kd [µM]
CCOc1cc2ncc(C#N)c(Nc3ccc(F)c(Cl)c3)c2cc1NC(=O)/C=C/CN(C)C [PELITINIB]	> 10
Nc1nc(Nc2ccc(S(N)(=O)=O)cc2)nn1C(=O)c1c(F)cccc1F [JNJ-7706621]	> 10
Oc1ccc(-c2nc(-c3ccncc3)c(-c3ccc(F)cc3)[nH]2)cc1 [SB-202190]	> 10
COCC(=O)NC/C=C/c1ccc2ncnc(Nc3ccc(Oc4ccc(C)nc4)c(C)c3)c2c1 [CP-724714]	> 10
NC(=O)c1ccc(-c2nc(-c3ccc4c(c3)OCO4)c(-c3ccccn3)[nH]2)cc1 [SB-431542]	> 10

Target: T2, Myosin-IIIb (Homo sapiens, UniProt Q8WXR4)
T2 sequence (Q8WXR4 whole entry): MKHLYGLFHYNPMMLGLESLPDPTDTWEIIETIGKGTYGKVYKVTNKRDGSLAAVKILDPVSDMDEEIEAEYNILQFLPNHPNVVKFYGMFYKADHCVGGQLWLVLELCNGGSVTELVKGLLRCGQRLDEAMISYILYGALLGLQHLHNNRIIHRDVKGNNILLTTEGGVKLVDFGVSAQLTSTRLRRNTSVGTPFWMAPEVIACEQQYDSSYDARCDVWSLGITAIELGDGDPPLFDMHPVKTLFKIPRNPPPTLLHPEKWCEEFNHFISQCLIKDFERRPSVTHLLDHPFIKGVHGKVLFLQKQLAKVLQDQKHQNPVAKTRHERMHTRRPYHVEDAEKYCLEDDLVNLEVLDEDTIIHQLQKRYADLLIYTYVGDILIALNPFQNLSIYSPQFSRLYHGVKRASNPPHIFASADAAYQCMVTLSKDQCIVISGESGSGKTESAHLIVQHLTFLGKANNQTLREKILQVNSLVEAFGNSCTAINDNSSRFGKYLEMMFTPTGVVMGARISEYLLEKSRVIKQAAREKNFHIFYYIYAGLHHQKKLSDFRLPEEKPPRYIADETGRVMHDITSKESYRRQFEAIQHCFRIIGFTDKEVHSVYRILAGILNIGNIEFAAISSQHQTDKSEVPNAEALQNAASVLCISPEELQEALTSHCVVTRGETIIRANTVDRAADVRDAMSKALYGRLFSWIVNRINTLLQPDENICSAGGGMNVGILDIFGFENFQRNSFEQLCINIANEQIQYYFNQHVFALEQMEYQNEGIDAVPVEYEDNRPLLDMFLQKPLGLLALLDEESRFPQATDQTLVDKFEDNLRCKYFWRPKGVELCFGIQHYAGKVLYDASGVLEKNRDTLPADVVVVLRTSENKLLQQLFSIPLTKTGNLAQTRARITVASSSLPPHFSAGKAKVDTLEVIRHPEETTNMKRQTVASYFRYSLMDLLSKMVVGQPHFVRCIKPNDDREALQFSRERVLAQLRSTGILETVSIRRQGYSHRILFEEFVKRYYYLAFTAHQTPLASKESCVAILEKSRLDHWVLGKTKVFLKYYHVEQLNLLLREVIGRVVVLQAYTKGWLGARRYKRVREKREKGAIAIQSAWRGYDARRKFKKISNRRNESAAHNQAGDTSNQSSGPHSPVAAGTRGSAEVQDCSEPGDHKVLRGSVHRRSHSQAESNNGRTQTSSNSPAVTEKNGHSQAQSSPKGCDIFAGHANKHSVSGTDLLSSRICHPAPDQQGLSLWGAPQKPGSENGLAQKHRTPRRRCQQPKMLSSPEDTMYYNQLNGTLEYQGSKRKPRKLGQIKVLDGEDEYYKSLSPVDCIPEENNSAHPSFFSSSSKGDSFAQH

SMILES	Kd [µM]
CCOc1cc2ncc(C#N)c(Nc3ccc(F)c(Cl)c3)c2cc1NC(=O)/C=C/CN(C)C [PELITINIB]	> 10
Nc1nc(Nc2ccc(S(N)(=O)=O)cc2)nn1C(=O)c1c(F)cccc1F [JNJ-7706621]	> 10
Oc1ccc(-c2nc(-c3ccncc3)c(-c3ccc(F)cc3)[nH]2)cc1 [SB-202190]	> 10
COCC(=O)NC/C=C/c1ccc2ncnc(Nc3ccc(Oc4ccc(C)nc4)c(C)c3)c2c1 [CP-724714]	> 10
NC(=O)c1ccc(-c2nc(-c3ccc4c(c3)OCO4)c(-c3ccccn3)[nH]2)cc1 [SB-431542]	> 10

Target: Myosin light chain kinase 2, skeletal/cardiac muscle (Homo sapiens, UniProt Q9H1R3)
Sequence (Q9H1R3 whole entry): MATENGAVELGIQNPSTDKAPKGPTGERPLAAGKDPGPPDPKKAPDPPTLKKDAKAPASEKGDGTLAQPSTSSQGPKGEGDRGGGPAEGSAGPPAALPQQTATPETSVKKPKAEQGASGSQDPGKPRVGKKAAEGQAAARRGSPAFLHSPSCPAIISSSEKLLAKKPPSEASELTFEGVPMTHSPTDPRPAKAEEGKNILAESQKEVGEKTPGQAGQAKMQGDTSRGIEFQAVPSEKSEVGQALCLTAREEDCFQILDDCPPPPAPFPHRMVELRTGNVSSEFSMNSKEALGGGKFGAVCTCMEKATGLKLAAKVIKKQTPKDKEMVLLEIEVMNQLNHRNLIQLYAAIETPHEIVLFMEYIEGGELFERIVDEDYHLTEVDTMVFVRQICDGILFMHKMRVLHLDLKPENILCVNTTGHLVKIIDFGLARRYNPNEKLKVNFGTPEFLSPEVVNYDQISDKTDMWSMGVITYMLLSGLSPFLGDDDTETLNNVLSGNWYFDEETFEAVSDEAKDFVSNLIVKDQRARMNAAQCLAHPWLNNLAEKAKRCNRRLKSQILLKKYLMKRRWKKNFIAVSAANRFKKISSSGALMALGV

SMILES	Kd [µM]
Nc1nc(Nc2ccc(S(N)(=O)=O)cc2)nn1C(=O)c1c(F)cccc1F [JNJ-7706621]	> 10
Oc1ccc(-c2nc(-c3ccncc3)c(-c3ccc(F)cc3)[nH]2)cc1 [SB-202190]	> 10
COCC(=O)NC/C=C/c1ccc2ncnc(Nc3ccc(Oc4ccc(C)nc4)c(C)c3)c2c1 [CP-724714]	> 10
NC(=O)c1ccc(-c2nc(-c3ccc4c(c3)OCO4)c(-c3ccccn3)[nH]2)cc1 [SB-431542]	> 10

Target: Calcium/calmodulin-dependent protein kinase type II subunit delta (Homo sapiens, UniProt Q13557)
Sequence (Q13557 whole entry): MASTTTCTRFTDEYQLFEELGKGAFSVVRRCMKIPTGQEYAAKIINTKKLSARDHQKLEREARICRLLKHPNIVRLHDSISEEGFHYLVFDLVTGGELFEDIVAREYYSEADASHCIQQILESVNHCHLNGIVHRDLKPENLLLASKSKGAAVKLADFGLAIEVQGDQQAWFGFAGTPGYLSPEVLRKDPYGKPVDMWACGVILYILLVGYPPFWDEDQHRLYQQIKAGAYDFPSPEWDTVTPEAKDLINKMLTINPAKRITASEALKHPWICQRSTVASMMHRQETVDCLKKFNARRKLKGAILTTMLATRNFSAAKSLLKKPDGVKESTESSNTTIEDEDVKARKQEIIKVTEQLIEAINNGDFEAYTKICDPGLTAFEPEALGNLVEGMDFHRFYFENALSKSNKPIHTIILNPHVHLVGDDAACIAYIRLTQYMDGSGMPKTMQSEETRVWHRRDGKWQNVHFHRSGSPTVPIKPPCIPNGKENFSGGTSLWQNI

SMILES	Kd [µM]
CCOc1cc2ncc(C#N)c(Nc3ccc(F)c(Cl)c3)c2cc1NC(=O)/C=C/CN(C)C [PELITINIB]	> 10
Nc1nc(Nc2ccc(S(N)(=O)=O)cc2)nn1C(=O)c1c(F)cccc1F [JNJ-7706621]	> 10
Oc1ccc(-c2nc(-c3ccncc3)c(-c3ccc(F)cc3)[nH]2)cc1 [SB-202190]	> 10
COCC(=O)NC/C=C/c1ccc2ncnc(Nc3ccc(Oc4ccc(C)nc4)c(C)c3)c2c1 [CP-724714]	> 10
NC(=O)c1ccc(-c2nc(-c3ccc4c(c3)OCO4)c(-c3ccccn3)[nH]2)cc1 [SB-431542]	> 10

Target: Ribosomal protein S6 kinase alpha-6 (Homo sapiens, UniProt Q9UK32)
Sequence (Q9UK32 whole entry): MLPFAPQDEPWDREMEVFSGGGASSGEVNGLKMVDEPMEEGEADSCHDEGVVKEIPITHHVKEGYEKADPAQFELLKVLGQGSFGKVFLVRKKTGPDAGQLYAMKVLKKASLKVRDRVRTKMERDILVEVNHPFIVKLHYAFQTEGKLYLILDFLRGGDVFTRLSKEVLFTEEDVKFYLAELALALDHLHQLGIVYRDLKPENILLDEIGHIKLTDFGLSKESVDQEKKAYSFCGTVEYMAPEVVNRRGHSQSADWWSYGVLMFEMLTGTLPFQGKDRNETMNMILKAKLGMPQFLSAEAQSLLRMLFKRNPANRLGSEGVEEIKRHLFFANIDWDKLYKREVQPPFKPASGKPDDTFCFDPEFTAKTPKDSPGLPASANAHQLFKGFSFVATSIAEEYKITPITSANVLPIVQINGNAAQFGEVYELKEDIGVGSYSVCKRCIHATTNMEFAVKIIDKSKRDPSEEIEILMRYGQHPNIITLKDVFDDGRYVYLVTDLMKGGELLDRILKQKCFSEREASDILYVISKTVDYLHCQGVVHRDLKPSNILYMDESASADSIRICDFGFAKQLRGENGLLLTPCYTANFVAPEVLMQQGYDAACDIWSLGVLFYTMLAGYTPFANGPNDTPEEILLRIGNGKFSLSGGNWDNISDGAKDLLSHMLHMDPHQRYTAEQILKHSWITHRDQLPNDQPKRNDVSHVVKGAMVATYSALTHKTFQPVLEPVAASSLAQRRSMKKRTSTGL

SMILES	Kd [µM]
CCOc1cc2ncc(C#N)c(Nc3ccc(F)c(Cl)c3)c2cc1NC(=O)/C=C/CN(C)C [PELITINIB]	> 10
Oc1ccc(-c2nc(-c3ccncc3)c(-c3ccc(F)cc3)[nH]2)cc1 [SB-202190]	0.27
COCC(=O)NC/C=C/c1ccc2ncnc(Nc3ccc(Oc4ccc(C)nc4)c(C)c3)c2c1 [CP-724714]	> 10

Target: Fibroblast growth factor receptor 3 (Homo sapiens, UniProt P22607)

SMILES	Kd [µM]
CCOc1cc2ncc(C#N)c(Nc3ccc(F)c(Cl)c3)c2cc1NC(=O)/C=C/CN(C)C [PELITINIB]	> 10
Oc1ccc(-c2nc(-c3ccncc3)c(-c3ccc(F)cc3)[nH]2)cc1 [SB-202190]	> 10
COCC(=O)NC/C=C/c1ccc2ncnc(Nc3ccc(Oc4ccc(C)nc4)c(C)c3)c2c1 [CP-724714]	> 10
NC(=O)c1ccc(-c2nc(-c3ccc4c(c3)OCO4)c(-c3ccccn3)[nH]2)cc1 [SB-431542]	> 10
CCN1CCN(Cc2ccc(NC(=O)Nc3ccc(Oc4cc(NC)ncn4)cc3)cc2C(F)(F)F)CC1 [AST-487]	> 10
